Data as given in patent US20230091225A1, “Bifunctional chimeric heterocyclic compounds for targeted degradation of androgen receptors and use thereof” (HINOVA PHARMACEUTICALS INC., priority 2019, published 2023).
Read-outs that look alike come from different tables or passages of the source.

Target: T1, androgen receptor (AR) (Homo sapiens, UniProt P10275)
T1 sequence (P10275 1-920): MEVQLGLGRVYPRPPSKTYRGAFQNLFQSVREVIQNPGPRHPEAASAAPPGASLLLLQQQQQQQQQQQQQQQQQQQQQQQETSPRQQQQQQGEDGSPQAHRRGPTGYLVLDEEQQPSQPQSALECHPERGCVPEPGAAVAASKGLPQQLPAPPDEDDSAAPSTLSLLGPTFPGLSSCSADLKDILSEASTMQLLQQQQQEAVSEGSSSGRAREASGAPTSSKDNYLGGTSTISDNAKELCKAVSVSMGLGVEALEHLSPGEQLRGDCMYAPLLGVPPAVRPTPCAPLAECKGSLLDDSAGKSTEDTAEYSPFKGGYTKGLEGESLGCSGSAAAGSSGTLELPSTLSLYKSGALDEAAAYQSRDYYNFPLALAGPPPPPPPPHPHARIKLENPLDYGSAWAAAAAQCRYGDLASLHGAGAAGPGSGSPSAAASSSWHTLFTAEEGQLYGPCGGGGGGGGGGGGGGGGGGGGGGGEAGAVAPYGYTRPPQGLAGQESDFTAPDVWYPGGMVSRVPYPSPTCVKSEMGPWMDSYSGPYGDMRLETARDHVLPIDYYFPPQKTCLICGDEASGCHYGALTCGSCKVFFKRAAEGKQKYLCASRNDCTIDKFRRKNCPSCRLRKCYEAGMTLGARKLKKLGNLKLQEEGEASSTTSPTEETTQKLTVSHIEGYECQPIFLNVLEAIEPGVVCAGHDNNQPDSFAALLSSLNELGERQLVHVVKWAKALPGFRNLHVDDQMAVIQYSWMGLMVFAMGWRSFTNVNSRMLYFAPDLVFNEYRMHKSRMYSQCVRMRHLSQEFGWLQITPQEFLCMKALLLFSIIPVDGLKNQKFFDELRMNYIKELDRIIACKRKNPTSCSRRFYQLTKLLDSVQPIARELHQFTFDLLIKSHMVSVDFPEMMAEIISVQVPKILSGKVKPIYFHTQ
Assay: Degradation of androgen receptor (AR) protein in VCaP cells by ELISA
Format: cell-based
Conditions: for Dmax: VCaP

[1] = AR degradation, VCaP cells, 16 h, ELISA, Table 3-1, read-out: DC50
[2] = AR degradation, VCaP cells, 16 h, ELISA, Table 3-1, read-out: Dmax (%)

DC50 [1] [nM] | Dmax [2] [%] | Structure (SMILES) | Dmax [%] | DC50 [nM] | further results
– | – | N#Cc1ccc(OC2CCC(NC(=O)c3cnc(N4CCN(CC5[C@H]6CN(c7cc8c(cc7F)C(=O)N(C7CCC(=O)NC7=O)C8=O)C[C@@H]56)CC4)nc3)CC2)cc1Cl (stereo partly drawn) [Compound 128] | – | – | Dmax (%): +++ (key: ++++: >80%; +++: 80%-60%; ++: 60%-40%; +: <40%); DC50 (read-out: DC50): 10 to 100 nM
< 10 | > 80 | N#Cc1ccc(O[C@H]2CC[C@H](NC(=O)c3ccc(N4CC5(CC(N6CCN(c7cc8c(cc7F)C(=O)N(C7CCC(=O)NC7=O)C8=O)CC6)C5)C4)nn3)CC2)cc1Cl (stereo partly drawn) [Compound 129, N-((1r,4r)-4-(3-chloro-4-cyanophenoxy)cyclohexyl)-6-(6-(4-(2-(2,6-dioxopiperidin-3-yl)-6-fluoro-1,3-dioxoisoindolin-5-yl)piperazin-1-yl)-2-azaspiro[3.3]heptan-2-yl)pyridazine-3-amide] | – | – | –
– | – | N#Cc1ccc(O[C@H]2CC[C@H](NC(=O)c3ccc(N4CCC(CN5CCC6(CC5)CN(c5ccc7c(c5)C(=O)N(C5CCC(=O)NC5=O)C7=O)C6)CC4)nn3)CC2)cc1 (stereo partly drawn) [Compound 131, N-((1r,4r)-4-(4-cyanophenoxy)cyclohexyl)-6-(4-((2-(2-(2,6-dioxopiperidin-3-yl)-1,3-dioxoisoindolin-5-yl)-2,7-diazaspiro[3.5]nonan-7-yl)methyl)piperidin-1-yl)pyridazine-3-carboxamide] | 60 to 80 | 10 to 100 | –
– | – | [2H]C([2H])([2H])N(C(=O)c1ccc(N2CCC(CN3CCN(c4cc5c(cc4F)C(=O)N(C4CCC(=O)NC4=O)C5=O)CC3)CC2)nn1)[C@H]1CC[C@H](Oc2ccc(C#N)c(Cl)c2)CC1 (stereo partly drawn) [Compound 133, N-((1r,4r)-4-(3-chloro-4-cyanophenoxy)cyclohexyl)-6-(4-((4-(2-(2,6-dioxopiperidin-3-yl)-6-fluoro-1,3-dioxoisoindolin-5-yl)piperazin-1-yl)methyl)piperidin-1-yl)-N-deuteromethyl-pyridazine-3-amide] | < 40 | > 300 | –
10 to 100 | 60 to 80 | N#Cc1ccc(O[C@H]2CC[C@H](NC(=O)c3ccc(N4CCC(CN5CCC(Oc6ccc7c(c6)C(=O)N(C6CCC(=O)NC6=O)C7=O)CC5)CC4)nn3)CC2)cc1Cl (stereo partly drawn) [Compound 147] | – | – | –
– | – | N#Cc1ccc(O[C@H]2CC[C@H](NC(=O)c3ncc(N4CCC(CN5CCC6(CC5)CN(c5cc7c(cc5F)C(=O)N(C5CCC(=O)NC5=O)C7=O)C6)CC4)cn3)CC2)cc1Cl (stereo partly drawn) [Compound 148] | 40 to 60 | > 300 | –
– | – | N#Cc1ccc(O[C@H]2CC[C@H](NC(=O)c3ncc(N4CCC(CN5CCC6(CC5)CN(c5ccc7c(c5)C(=O)N(C5CCC(=O)NC5=O)C7=O)C6)CC4)cn3)CC2)cc1Cl (stereo partly drawn) [Compound 149] | < 40 | > 300 | –
– | – | N#Cc1ccc(O[C@H]2CC[C@H](NC(=O)c3ccc(N4CCC(CN5CCC6(CC5)CN(c5ccc7c(c5)C(=O)N(C5CCC(=O)NC5=O)C7=O)C6)CC4)nn3)CC2)cc1C(F)(F)F (stereo partly drawn) [Compound 151] | > 80 | < 10 | –
– | – | N#Cc1ccc(O[C@H]2CC[C@H](NC(=O)c3ccc(N4CCC(CN5CCC6(CC5)CN(c5cc7c(cc5F)C(=O)N(C5CCC(=O)NC5=O)C7=O)C6)CC4)nn3)CC2)cc1C(F)(F)F (stereo partly drawn) [Compound 152] | > 80 | 10 to 100 | –
– | – | [2H]C([2H])([2H])Oc1cc(O[C@H]2CC[C@H](NC(=O)c3ccc(N4CCC(CN5CCC6(CC5)CN(c5ccc7c(c5)C(=O)N(C5CCC(=O)NC5=O)C7=O)C6)CC4)nn3)CC2)ccc1C#N (stereo partly drawn) [Compound 153] | > 80 | < 10 | –
– | – | CCOc1cc(O[C@H]2CC[C@H](NC(=O)c3ccc(N4CCC(CN5CCC6(CC5)CN(c5ccc7c(c5)C(=O)N(C5CCC(=O)NC5=O)C7=O)C6)CC4)nn3)CC2)ccc1C#N (stereo partly drawn) [Compound 154] | > 80 | < 10 | –
– | – | COCCOc1cc(O[C@H]2CC[C@H](NC(=O)c3ccc(N4CCC(CN5CCC6(CC5)CN(c5ccc7c(c5)C(=O)N(C5CCC(=O)NC5=O)C7=O)C6)CC4)nn3)CC2)ccc1C#N (stereo partly drawn) [Compound 155] | > 80 | < 10 | –
< 10 | > 80 | N#Cc1ccc(O[C@H]2CC[C@H](NC(=O)c3ccc(N4CCC5(CCN(C6CCN(c7cc8c(cc7F)C(=O)N(C7CCC(=O)NC7=O)C8=O)CC6)C5)C4)nn3)CC2)cc1Cl (stereo partly drawn) [Compound 166, N-((1r,4r)-4-(3-chloro-4-cyanophenoxy)cyclohexyl)-6-(7-(1-(2-(2,6-dioxopiperidin-3-yl)-6-fluoro-1,3-dioxoisoindolin-5-yl)piperidine-4-yl)-2,7-diazaspiro[4.4]nonan-2-yl)pyridazine-3-formamide] | – | – | –
< 10 | > 80 | C[C@H]1CN(c2ccc(C(=O)N[C@H]3CC[C@H](Oc4ccc(C#N)c(Cl)c4)CC3)nn2)CCN1C[C@H]1[C@@H]2CN(c3cc4c(cc3F)C(=O)N(C3CCC(=O)NC3=O)C4=O)C[C@@H]21 (stereo partly drawn) [Compound 168] | – | – | –
10 to 100 | 60 to 80 | C[C@H]1CN(c2cnc(C(=O)N[C@H]3CC[C@H](Oc4ccc(C#N)c(Cl)c4)CC3)cn2)CCN1C[C@H]1[C@@H]2CN(c3cc4c(cc3F)C(=O)N(C3CCC(=O)NC3=O)C4=O)C[C@@H]21 (stereo partly drawn) [Compound 169] | – | – | –
< 10 | > 80 | C[C@H]1CN(C[C@@H]2[C@H]3CN(c4cc5c(cc4F)C(=O)N(C4CCC(=O)NC4=O)C5=O)C[C@@H]23)CCN1c1ccc(C(=O)N[C@H]2CC[C@H](Oc3ccc(C#N)c(Cl)c3)CC2)nn1 (stereo partly drawn) [Compound 170] | – | – | –
10 to 100 | > 80 | C[C@H]1CN(C[C@@H]2[C@H]3CN(c4cc5c(cc4F)C(=O)N(C4CCC(=O)NC4=O)C5=O)C[C@@H]23)CCN1c1cnc(C(=O)N[C@H]2CC[C@H](Oc3ccc(C#N)c(Cl)c3)CC2)cn1 (stereo partly drawn) [Compound 171] | – | – | –
< 10 | > 80 | N#Cc1ccc(O[C@H]2CC[C@H](NC(=O)c3cnc(N4CCC(CN5CCC6(C5)CN(c5cc7c(cc5F)C(=O)N(C5CCC(=O)NC5=O)C7=O)C6)CC4)cn3)CC2)cc1Cl (stereo partly drawn) [Compound 186, N-((1r,4r)-4-(3-chloro-4-cyanophenoxy)cyclohexyl)-5-(4-((2-(2-(2,6-dioxopiperidin-3-yl)-6-fluoro-1,3-dioxoisoindolin-5-yl)-2,6-diazaspiro[3.4]octan-6-yl)methyl)piperidin-1-yl)pyrazine-2-carboxamide] | – | – | –
< 10 | > 80 | N#Cc1ccc(O[C@H]2CC[C@H](NC(=O)c3cnc(N4CCC(CN5CCC6(C5)CN(c5ccc7c(c5)C(=O)N(C5CCC(=O)NC5=O)C7=O)C6)CC4)cn3)CC2)cc1Cl (stereo partly drawn) [Compound 187, N-((1r,4r)-4-(3-chloro-4-cyanophenoxy)cyclohexyl)-5-(4-((2-(2-(2,6-dioxopiperidin-3-yl)-1,3-dioxoisoindolin-5-yl)-2,6-diazaspiro[3.4]octan-6-yl)methyl)piperidin-1-yl)pyrazine-2-carboxamide] | – | – | –
< 10 | > 80 | N#Cc1ccc(O[C@H]2CC[C@H](NC(=O)c3cnc(N4CCC(CN5CC6(CCN(c7cc8c(cc7F)C(=O)N(C7CCC(=O)NC7=O)C8=O)C6)C5)CC4)cn3)CC2)cc1Cl (stereo partly drawn) [Compound 188, N-((1r,4r)-4-(3-chloro-4-cyanophenoxy)cyclohexyl)-5-(4-((6-(2-(2,6-dioxopiperidin-3-yl)-6-fluoro-1,3-dioxoisoindolin-5-yl)-2,6-diazaspiro[3.4]octan-2-yl)methyl)piperidin-1-yl)pyrazine-2-carboxamide] | – | – | –

Structure (SMILES) | DC50 [1] [nM] | Dmax [2] [%] | Dmax [%] | DC50 [nM] | further results
N#Cc1ccc(O[C@H]2CC[C@H](NC(=O)c3ccc(N4CCN(C[C@@H]5[C@H]6CN(c7cc8c(cc7F)C(=O)N(C7CCC(=O)NC7=O)C8=O)C[C@@H]56)CC4)nn3)CC2)cc1Br (stereo partly drawn) [Compound 126, N-((1r,4r)-4-(3-bromo-4-cyanophenoxy)cyclohexyl)-6-(4-(((1R,5S,6s)-3-(2-(2,6-dioxopiperidin-3-yl)-6-fluoro-1,3-dioxoisoindolin-5-yl)-3-azabicyclo[3.1.0]hexan-6-yl)methyl)piperazin-1-yl)pyridazine-3-amide] | < 10 | – | > 80 | – | –
N#Cc1ccc(O[C@H]2CC[C@H](NC(=O)c3ccc(N4CCC(CN5CCC6(CC5)CN(c5cc7c(cc5F)C(=O)N(C5CCC(=O)NC5=O)C7=O)C6)CC4)nn3)CC2)cc1 (stereo partly drawn) [Compound 132, N-((1r,4r)-4-(4-cyanophenoxy)cyclohexyl)-6-(4-((2-(2-(2,6-dioxapiperidin-3-yl)-6-fluoro-1,3-dioxoisoindolin-5-yl)-2,7-diazaspiro[3.5]nonan-7-yl)methyl)piperidin-1-yl)pyridazine-3-carboxamide] | 10 to 100 | – | 60 to 80 | – | –
N#Cc1ccc(O[C@H]2CC[C@H](NC(=O)c3ncc(N4CCC(CN5CCC6(CC5)CN(c5ccc7c(c5)C(=O)N(C5CCC(=O)NC5=O)C7=O)C6)CC4)cn3)CC2)cc1Cl (stereo partly drawn) [Compound 135] | > 300 | < 40 | – | – | –
N#Cc1ccc(O[C@H]2CC[C@H](NC(=O)c3ncc(N4CC5(CCN(CC6CCN(c7cc8c(cc7F)C(=O)N(C7CCC(=O)NC7=O)C8=O)CC6)CC5)C4)cn3)CC2)cc1Cl (stereo partly drawn) [Compound 150] | > 300 | – | < 40 | – | –
